According to patent US7825094B2, “Method of treatment for cancers associated with elevated HER 2 levels” (Sloan-Kettering Institute for Cancer Research, priority 2001, dated 2010):

Key:
[1] = tested on: cyclin D1, cyclin D3, cdk4, AKT, Raf-1 in BT-474 cells; assay: Immunoblot of protein expression in BT-474 (HER-2+++) cells; assay type: cell-based, human; conditions: 50 nM or 500 nM
Protocol: (§1) Levels of mitotic cyclin expression, HER-2 expression, AKT expression and Raf1 expression in MCF-7 (HER-2 negative) or BT-474 (HER-2+++) cell lines treated with CNF-101 (17-AAG) were assessed using immunoblot analysis. Immunoblot analysis of lysates from cells treated with either 50 nM or 500 nM CNF-101 (17-AAG) were analyzed by Western blot using anti-cyclin D1, anti-cyclin D3, anti-cyclin cdk4, anti-AKT or anti-Raf1 antibodies. All antibodies were obtained from Santa Cruz Biotechnology (Santa Cruz, Calif., USA). Treated cells were harvested, washed with PBS and lysed in NP40 lysis buffer (50 mM Tris pH7.4, 1% NP40,150 mM NaCl, 40 mM NaF. 1 mM Na3VO4, 1 mM phenylmethylsulfonylfluoride, and 10 μg/ml each of leupeptin, aprotinin and soybean trypsin inhibitor) for 30 min on ice. Lysates were centrifuged at 15,000×g for 10 min and protein concentration determined by bicinchoninic acid protein assay (Pierce). Equal amounts of total protein were resolved by SDS-PAGE and transferred onto Immobilon PVDF membranes (Millipore) by electroblotting. Blots were blocked overnight in 5% nonfat milk in TBS-T (0.1% Tween-20 TBS, 10 mM Tris pH 7.4, 150 mM NaCl) at 4° C. and subsequently probed with either anti-HER-2, anti-cylin D1, anti-cyclin D3, anti cdk4, anti-AKT or anti-Raf1 antibodies. Following incubation with HRP-conjugated secondary antibodies, proteins were detected by chemiluminescence (Amersham).

[2] = tested on: AKT kinase activity in HER-2-low MCF-7 line; assay: AKT kinase activity after immunoprecipitation (GSK-1 substrate, 32-P ATP) in MCF-7 cells; assay type: cell-based, human; conditions: ten times 100 nM
Protocol: (§2) Cells were treated with 1 uM CNF-101 (17-AAG) for 24 hrs, washed, harvested and lysed in NP-40. Lysates were resolved by SDS-PAGE, transferred onto Immobilon PVDF membranes, blocked in 5% nonfat milk and probed with antibodies to AKT or […] phosphorylated AKT (phospho-AKT) from Upstate. Following incubation with HRP-conjugated secondary antibodies, proteins were detected using chemiluminescnce (Amersham). AKT kinase activity was assessed following immunopreciptation by a standard kinase assay with the recombinant AKT substrate protein glycogen synthase kinase-1 (GSK-1) and 32-P labelled ATP. AKT is a key kinase in tumor cells.

[3] = tested on: AKT and phospho-AKT in BT-474, SKBR-3, U87, MCF-7, MDA-468 cells; assay: Western blot of AKT and phospho-AKT in a panel of cell lines; assay type: cell-based, human
Protocol: as §2, with “AKT” for “AKT kinase activity was assessed following immunopreciptation by a standard kinase assay with the recombinant AKT substrate protein glycogen synthase kinase-1 (GSK-1) and 32-P labelled ATP. AKT”

[4] = tested on: AKT kinase activity in high HER-2 (SKBr3) cells; assay: AKT kinase activity after immunoprecipitation (GSK-1 substrate, 32-P ATP) in SKBr3 cells; assay type: cell-based, human; conditions: 100 nM
Protocol: as §2, with “Lysates” for “Cells were treated with 1 uM CNF-101 (17-AAG) for 24 hrs, washed, harvested and lysed in NP-40. Lysates”

[5] = tested on: cyclin D1, cyclin D3, cdk4, AKT, Raf-1 in MCF-7 cells; assay: Immunoblot of protein expression in MCF-7 (HER-2 negative) cells; assay type: cell-based, human; conditions: 50 nM or 500 nM
Protocol: as §1

[6] = tested on: AKT and phospho-AKT in HER-2+++ and HER-2- cells; assay: Western blot of AKT and phospho-AKT in HER-2+++ and HER-2- cells; assay type: cell-based, human; conditions: 1 uM, 24 hrs
Protocol: as §2

[7] = tested on: HER-2, AKT and phospho-AKT in BT-474 xenografts; assay: Western blot of HER-2, AKT and phospho-AKT in BT-474 breast carcinoma xenografts; assay type: in vivo, Swiss nu/nu mice; conditions: 50 mg/kg, intraperitoneally
Protocol: BT-474 breast tumor cells were implanted subcutaneously on the flank of Swiss nu/nu mice and allowed to become established to a diameter of 5 mm. Animals were treated intraperitoneally with optimal doses of CNF-101 (17-AAG) and tumors removed at the indicated times thereafter. Tumor tissue was snap-frozen at the time of removal. For analysis, tissues were rapidly thawed, lysed and assaysed for HER-2, AKT and phospho-AKT by Western blotting.

[8] = tested on: human cancer cell lines BT-474, SKBR-3, SKOV-3, MCF-Her2, MCF-7, MDA-468, MDA-231, T47-D, MDA435; assay: Antiproliferative effect on cancer cell lines expressing different amounts of HER-2 (ethidium bromide nuclei staining, flow cytometry); assay type: cell-based
Protocol: Human cancer cell lines BT-474, SKBR-3, SKOV-3, MCF-Her2, MCF-7, MDA-468, MDA-231, T47-D, and MDA435 were obtained from the American Type Culture Collection (“ATCC;” Manassas, Va., USA). Cell lines were maintained in […] medium, supplemented with 5% fetal calf serum (BRL), 2 mM glutamine, and 50 U/ml each of penicillin and streptomycin, at 37° C. in 5% CO2.
Cells were treated for 24 hours with CNF-101 (17-AAG) at concentrations of 1 to 1000 nM. Following treatment, the nuclei were stained with ethidium bromide and analyzed by flow cytometry. Nuclei were isolated for flow cytometry assays, stained with ethidium bromide and analyzed using a Becton Dickinson fluorescence-activated cell sorter. Statistical data was obtained using Multicycle program software.
Those cell lines expressing the highest levels of HER-2 were the most sensitive to CNF-101 (17-AAG) (FIG. 1).

[9] = HER-2 overexpressing cells (BT-474)
[10] = 1 uM, 24 hrs, panel of cell lines
[11] = HER low expressing cells (MCF-7)

C=CCNC1=C2C[C@@H](C)C[C@H](OC)[C@H](O)[C@@H](C)/C=C(\C)[C@H](OC(N)=O)[C@@H](OC)/C=C\C=C(/C)C(=O)NC(=CC1=O)C2=O [CNF-101 (17-AAG), 17-allylamino-17-demethoxygeldanamycin] was tested, and the “cyclin D1 protein level” value ([1]; BT-474) was “rapid decrease”, the “cyclin D3 protein level” value ([1]; BT-474) was “rapid decrease” and the “Raf-1 (HSP90 client protein) level” value ([1]; BT-474, 0, 4, 12, 24 hours) was “degradation”. The AKT protein level [1, 9] was “not affected”, the cdk4 protein level [1, 9] was “not affected” and the “time to cause even partial loss of AKT kinase activity” value [2] was 12 h. For the same compound, the AKT protein level [3, 10] was “does not cause significant loss of the protein”, the phospho-AKT level [3, 10] was “disappears from the treated cells” and the AKT activity ([3]; 1 uM, multiple cell lines) was “causes loss of AKT activity in multiple cell lines”. The “loss of AKT activity in high HER-2 lines versus low HER-2 lines” value ([3]; high HER-2: BT-474, SKBR-3, low HER-2: U87, MCF-7, MDA-468) was “much more rapid and complete loss of AKT activity”, the “time to complete loss of AKT activity” value [4] was no more than 3 h and the AKT protein level [5, 11] was “not affected”. For the same compound, the cdk4 protein level [5, 11] was “not affected”, the “decrease in cyclin D1 protein level” value ([5]; MCF-7 (low HER-2)) was “not seen” and the “decrease in cyclin D3 protein level” value ([5]; MCF-7 (low HER-2)) was “not seen”. The “Raf-1 (HSP90 client protein) level” value ([5]; MCF-7, 0, 4, 12, 24 hours) was “degradation”, the AKT protein level [6] was “does not cause significant loss of the protein” and the phospho-AKT level [6] was “disappears from the treated cells”. The “AKT protein levels in xenograft” value [7] was “remained constant”, the “HER-2 protein levels in xenograft” value [7] was “declined” and the “phosphorylated ("active") AKT protein in xenograft” value [7] was “declined rapidly”. The growth arrest ([8]; 24 hours, 1 to 1000 nM, all cell lines tested (FIG. 1)) was “caused growth arrest in all the cell lines tested”, the “difference in sensitivity between congenic pair” value ([8]; MCF-7 vs. MCF-7/HER-2) was 10 fold and the “sensitivity of high HER-2 lines versus low HER-2 lines” value ([8]; high HER-2: BT-474, SKBR-3, SKOV-3, MDA435, low HER-2: MDA-468, MDA-231, T47D) was “markedly more sensitive”.
